Like-named read-outs stand apart in the source and are kept apart here. Marks after values point to notes of the source that are not given here.
Key:
[1] = Solubilities of salts in three solvents (Example 2); settings: for solubility at 3 min: 20 °C, thermodynamic from solid
Protocol: (§1) The solubilities of various salts was investigated in three solvents [distilled water (pH 5.0), 50 mM ammonium formate (pH 7.9) and 0.1 M hydrochloric acid (pH0.6)]. An excess of the salt was suspended in the chosen medium and sonicated for 3 minutes. The mixture was centrifuged for 10 minutes, the supernatant liquid was collected and the solubility was measured.

physchem = settings: 20 °C, pH 5, water, thermodynamic from solid
Protocol: as §1

[2] = test system: differentiation of human CD34+ stem cells into megakaryocytes; assay: In vitro anti-megakaryocytic activity (model of megakaryocytopoiesis); type: cell-based
Excerpt: Such activity may be assessed using a well established model. Assessment of the in vitro anti-megakaryocytic activity—and potentially therefore the platelet lowering capability—of the anagrelide prodrugs can be determined using the model of megakaryocytopoiesis (Cohen-Solal et al., Thromb. Haemost. 1997, 78:37-41 and Cramer et al, Blood, 1997, 89:2336-46). This involves examining the differentiation of human CD34^+ stem cells into megakaryocytes which ultimately give rise to blood platelets.

PDEIII = PDEIII inhibition; type: biochemical; settings: more potent than anagrelide itself
[3] = Plasma exposure to metabolite after treatment with anagrelide; type: in vivo
[4] = Radiolabelling study in humans, oral 14C-labelled drug; type: in vivo
Protocol: Anagrelide HCl itself is a poorly soluble drug substance. In the pH range of 4-8, the solubility is less than 10 μg/mL. […] Thus over much of the physiological pH range the drug has very poor aqueous solubility. Even material dissolving in the stomach at pH 1-2 may precipitate in the duodenum at pH 5-6. This presents potential problems for the quantitative absorption from the most likely site for absorption, namely the upper small intestine. As a consequence anagrelide is micronised prior to filling into capsules for clinical use to ensure maximal absorption. […] However for those patients requiring larger doses either as the result of relative insensitivity to the drug, higher first-pass pre-systemic metabolism or greater body weight, the possibility exists for incomplete absorption. This would be expected to lead to increased variability in attained plasma drug concentrations and consequential variability in patient response.

[5] = dog, in vivo
Protocol: The potential benefit of improved water solubility on the absorption of these open-ring analogues was shown in a comparative bioavailability study in the dog. Using the unsubstituted ethyl-5,6-dichloro-3,4-dihydro-2-(1H)-iminoquinazoline-3-acetate HBr as a model compound, a comparison was made of the systemic availability of anagrelide when given as this compound or as anagrelide itself in equimolar doses (7.7 & 6.1 mg/kg respectively).
The metabolite-to-drug exposure ratio after anagrelide was 1.5 compared to 0.9 after the prodrug.
The lesser variability was consistent with more efficient absorption. This study illustrated the potential benefits of the open-ring prodrugs to improve absorption.

[6] = Aqueous solubility / solubility-pH profile
[7] = Conversion of prodrug to anagrelide in human plasma (LC/MS-MS); type: in vitro ADME; settings: spiked 100 ng/mL, room temperature, first point of measurement immediately after mixing
Protocol: Such prodrugs are likely to be extremely rapidly and completely cyclised in plasma to the closed ring 3-alkylanagrelide analogues. […] Human plasma was spiked with anagrelide prodrug (final concentration 100 ng/mL). Immediately after mixing, and at 15, 30, 45 and 60 minutes afterward samples were analysed for anagrelide prodrug and anagrelide.

[8] = 50 mM ammonium formate, pH 7.9, aqueous buffer
[9] = 0.1 M hydrochloric acid, pH 0.6, simulated gastric fluid
[10] = estimated from the solubility/pH profile

Br.CC1(C)C(=O)NC2=Nc3ccc(Cl)cc3CN21
solubility at 3 min [1, 8]: 4 µg/mL | solubility at 3 min [1, 9]: 215 µg/mL | solubility at 3 min ([1]; distilled water, pH 5, water): 20 µg/mL

CC(C)(C(=O)[O-])N1Cc2c(ccc(Cl)c2Cl)N=C1N.[Na+]
solubility at 3 min [1, 8]: 16 µg/mL | solubility at 3 min [1, 9]: 46 µg/mL | solubility at 3 min ([1]; distilled water, pH 5, water): 7340 µg/mL

Br.O=C1NC2=Nc3ccc(Cl)c(Cl)c3CN2C12CC2
solubility at 3 min [1, 8]: 1 µg/mL | solubility at 3 min [1, 9]: 35 µg/mL | solubility at 3 min ([1]; distilled water, pH 5, water): 2 µg/mL

Br.COC(=O)C1(N2Cc3c(ccc(Cl)c3Cl)N=C2N)CC1
solubility at 3 min [1, 9]: 6430 µg/mL | Solubility, Ammonium formate (50 mM, pH 7.9) ([1]; ca. 20° C., 50 mM ammonium formate, pH 7.9): unstable | solubility at 3 min ([1]; distilled water, pH 5, water): 7060 µg/mL

Cl.O=C1CN2Cc3c(ccc(Cl)c3Cl)N=C2N1
solubility at 3 min (physchem): 10 µg/mL | solubility at 3 min [1, 8]: 11 µg/mL | solubility at 3 min [1, 9]: 169 µg/mL

CC1(C)C(=O)NC2=Nc3ccc(Cl)c(Cl)c3CN21 [3, 3, dimethyl anagrelide]
IC50 [2]: ~160 nM

O=C1NC2=Nc3ccc(Cl)c(Cl)c3CN2C1O (stereo not drawn) [3-hydroxyanagrelide]
potency as inhibitor of PDEIII relative to anagrelide (PDEIII): ~40 fold | plasma exposure to metabolite relative to the drug itself [3]: three times greater

Cl.O.O=C1CN2Cc3c(ccc(Cl)c3Cl)N=C2N1 [anagrelide, 6,7-Dichloro-1,5-dihydroimidazo[2,1-b]-quinazolin-2(3H)-one hydrochloride monohydrate]
IC50 ([2]; hydrochloride monohydrate): ~27 nM | absorption ([4]; implied from urinary recovery after oral 1 mg): > 75% | administered radioactivity recovered in the urine ([4]; oral 1 mg 14C-labelled drug): > 75% | AUC for anagrelide, range across dogs ([5]; po): 21.6-188 ng.hmL^−1 | Cmax for anagrelide, range across dogs ([5]; po): 9.5-44.3 ngmL^−1 | inherent absorption ([5]; male, 6.1 mg/kg): < 6.25% | metabolite-to-drug exposure ratio ([5]; male, po): 1.5 | AUC0-t of 3-hydroxy anagrelide, mean ([5]; male, po, 6.1 mg/kg): 128 ng·h/mL | AUCinfin of 3-hydroxy anagrelide, mean ([5]; male, po, 6.1 mg/kg): 79.9 ng·h/mL | Cmax of 3-hydroxy anagrelide, mean ([5]; male, po, 6.1 mg/kg): 24.9 ng/mL | Tmax of 3-hydroxy anagrelide, median ([5]; male, po, 6.1 mg/kg): 1.5^b hours | t½ of 3-hydroxy anagrelide, calculated as ln2/(mean rate constant) ([5]; male, po, 6.1 mg/kg): 2.6^e hours | dissociation constant pKa1 [6, 10]: 2.9 | dissociation constant pKa2 [6, 10]: 9.8

Br.CCOC(=O)CN1Cc2c(ccc(Cl)c2Cl)NC1=N [ethyl-5,6-dichloro-3,4-dihydro-2-(1H)-iminoquinazoline-3-acetate HBr]
prodrug found in human plasma (conversion to anagrelide) [7]: no prodrug could be found | AUC for anagrelide, range across dogs ([5]; po): 367-1470 ng.hmL^−1 | Cmax for anagrelide, range across dogs ([5]; po): 170-418 ngmL^−1 | metabolite-to-drug exposure ratio ([5]; po): 0.9 | fold higher Cmax for anagrelide than when the drug itself was administered ([5]; po, 6.1 mg/kg): approximately 17 fold | mean fold higher AUC for anagrelide than when the drug itself was administered ([5]; po, 6.1 mg/kg): 16 fold | solubility ([6]; distilled water): ~5500 µg/mL
